For twelve compounds, Ki results are on record in patent US12570695B2, “Bicyclic peptide ligands specific for EphA2” (priority 2019, dated 2026).

For this assay, the target named is human EphA2 (Homo sapiens, UniProt P29317). The assay can be described thus: biochemical.

Starred links: 1 amine or outer side, 2 acyl side, 3 side chain; linkers in the order of their positions; H or OH if unused. Positions of bridges follow the written chain, without caps; N, C: chain ends. Non-standard residues stand in square brackets, D forms with d. Residues, ends and D or L forms follow the SMILES beside them. X5 = O=C(CCSCCN[*:3])N1CN(C(=O)CC[*:1])CN(C(=O)CC[*:2])C1; TATA = O=C(CC[*:1])N1CN(C(=O)CC[*:2])CN(C(=O)CC[*:3])C1; Ala(4-thiazolyl) = N[C@@H](Cc1cscn1)C(=O)O; Dip = N[C@H](C(=O)O)C(c1ccccc1)c1ccccc1; Hyp = O=C(O)[C@@H]1C[C@@H](O)CN1; hArg = N=C(N)NCCCC[C@H](N)C(=O)O; Aad = N[C@@H](CCCC(=O)O)C(=O)O; dNle = CCCC[C@@H](N)C(=O)O; NMeA = CN[C@@H](C)C(=O)O; Nle = CCCC[C@H](N)C(=O)O; Mpa = O=C(O)CCS

Sequence of human EphA2 (P29317 24-976): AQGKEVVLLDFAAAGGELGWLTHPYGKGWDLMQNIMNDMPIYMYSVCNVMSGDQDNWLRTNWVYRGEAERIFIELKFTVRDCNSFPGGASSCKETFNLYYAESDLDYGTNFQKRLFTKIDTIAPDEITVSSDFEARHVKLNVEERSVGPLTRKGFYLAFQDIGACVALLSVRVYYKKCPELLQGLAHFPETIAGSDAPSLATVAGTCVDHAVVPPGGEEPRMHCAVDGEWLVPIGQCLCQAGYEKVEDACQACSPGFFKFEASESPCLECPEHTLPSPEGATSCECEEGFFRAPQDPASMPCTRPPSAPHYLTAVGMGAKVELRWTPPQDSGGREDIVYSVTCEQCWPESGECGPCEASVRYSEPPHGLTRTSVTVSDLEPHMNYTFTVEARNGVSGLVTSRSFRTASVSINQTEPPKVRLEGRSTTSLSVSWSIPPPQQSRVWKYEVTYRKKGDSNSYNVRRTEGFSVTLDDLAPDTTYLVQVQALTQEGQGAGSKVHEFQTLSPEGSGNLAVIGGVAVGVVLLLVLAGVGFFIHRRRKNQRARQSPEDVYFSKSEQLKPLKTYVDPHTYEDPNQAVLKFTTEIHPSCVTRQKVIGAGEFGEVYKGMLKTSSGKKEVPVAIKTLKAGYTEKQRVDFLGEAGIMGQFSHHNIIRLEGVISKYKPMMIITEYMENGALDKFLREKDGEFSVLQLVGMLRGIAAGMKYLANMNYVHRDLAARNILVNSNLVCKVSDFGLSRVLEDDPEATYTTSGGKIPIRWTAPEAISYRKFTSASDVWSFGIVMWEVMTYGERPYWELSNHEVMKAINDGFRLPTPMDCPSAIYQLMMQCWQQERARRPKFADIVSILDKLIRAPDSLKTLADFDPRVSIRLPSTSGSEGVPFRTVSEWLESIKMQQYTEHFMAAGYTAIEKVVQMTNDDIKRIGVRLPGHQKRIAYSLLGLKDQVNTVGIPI
Experimental: Peptides without a fluorescent tag were tested in competition with a peptide with a fluorescent tag and a known Kd.
Peptides were diluted to an appropriate concentration in assay buffer as described in the direct binding assay with a maximum of 5% DMSO, then serially diluted 1 in 2. […] Measurements were conducted, however the gain was determined prior to the first measurement. Data analysis was in Systat Sigmaplot version 12.0 where the mP values were fit to a user defined cubic equation to generate a Ki value:
“Lig”, “KLig” and “Prot” were all defined values relating to: fluorescent peptide concentration, the Kd of the fluorescent peptide and EphA2 concentration respectively.

Broadly, the Ki is a dissociation constant, usually derived from enzyme kinetics or from competition with a known ligand. In the case of `CN[C@@H](C)C(=O)N[C@@H](CCCCNC(=N)N)C(=O)N[C@@H](CC(=O)O)C(=O)N[C@H]1CSCCC(=O)N2CN3CN(C2)C(=O)CCSC[C@H](NC(=O)[C@H](CC(C)C)NC(=O)[C@@H]2CCCN2C(=O)[C@H](CC(N)=O)NC(=O)[C@H](C(C)C)NC(=O)[C@H](CC(C)C)NC(=O)[C@@H]2C[C@@H](O)CN2C1=O)C(=O)N[C@@H](CC(C)C)C(=O)N[C@@H](CCC(=O)O)C(=O)N1CCC[C@H]1C(=O)N[C@H](CC(=O)O)C(=O)N[C@@H](Cc1c[nH]c2ccccc12)C(=O)N[C@@H]([C@@H](C)O)C(=O)N[C@H](C(N)=O)CSCCC3=O` [BCY13122, [NMeAla]-[HArg]-D-Ci[HyP]LVNPLCiiLEP[dD]WTCiii] (H-[NMeA][hArg]DC[Hyp]LVNPLCLEP[dD]WTC-NH2; linker 4-11-18 via TATA; N-terminus and C-terminus assumed), the affinity corresponds to a Ki of 7.8 nM.
In the case of `CC(=O)N[C@H]1CSCCC(=O)N2CN3CN(C2)C(=O)CCSC[C@H](NC(=O)[C@H](CC(C)C)NC(=O)[C@@H]2CCCN2C(=O)[C@H](CC(N)=O)NC(=O)[C@H](C(C)C)NC(=O)[C@H](CC(C)C)NC(=O)[C@@H]2C[C@@H](O)CN2C1=O)C(=O)N[C@@H](CC(C)C)C(=O)N[C@@H](Cc1c[nH]cn1)C(=O)N1CCC[C@H]1C(=O)N[C@H](CC(=O)O)C(=O)N[C@@H](Cc1c[nH]c2ccccc12)C(=O)N[C@@H](CCCCNC(=N)N)C(=O)N[C@H](C(=O)N[C@@H](CC(C)C)C(=O)N[C@H](Cc1c[nH]cn1)C(=O)NCC(=O)N[C@H](CCCCN)C(N)=O)CSCCC3=O` [BCY13125, [Ac]Ci[HyP]LVNPLCiiLHP[dD]W[HArg]CiiiL[dH]G[dK]] (Ac-C[Hyp]LVNPLCLHP[dD]W[hArg]CL[dH]G[dK]-NH2; linker 1-8-15 via TATA; C-terminus assumed), the affinity, expressed as Ki, was 1.83 nM.
The same measure for `CC(C)C[C@@H]1NC(=O)[C@@H]2CSCCC(=O)N3CN(CN(C3)C(=O)CCSC[C@H](NC(=O)[C@H](CC(=O)O)NC(=O)[C@H](CCC(=O)O)NC(=O)[C@@H](C)N)C(=O)N3C[C@H](O)C[C@H]3C(=O)N[C@@H](CC(C)C)C(=O)N[C@@H](C(C)C)C(=O)N[C@@H](CC(N)=O)C(=O)N3CCC[C@H]3C(=O)N[C@@H](CC(C)C)C(=O)N2)C(=O)CCSC[C@@H](C(N)=O)NC(=O)[C@H]([C@@H](C)O)NC(=O)[C@H](Cc2c[nH]c3ccccc23)NC(=O)[C@@H](CC(=O)O)NC(=O)[C@@H]2CCCN2C(=O)[C@H](CCC(=O)O)NC1=O` [BCY13126, [dA]-ED-Ci[HyP]LVNPLCiiLEP[dD]WTCiii] (H-[dA]EDC[Hyp]LVNPLCLEP[dD]WTC-NH2; linker 4-11-18 via TATA; N-terminus and C-terminus assumed): 25.3 nM.
For `CC(C)C[C@@H]1NC(=O)[C@@H]2CSCCC(=O)N3CN(CN(C3)C(=O)CCSC[C@@H](C(=O)N[C@H](CCCCN)C(N)=O)NC(=O)[C@H]([C@@H](C)O)NC(=O)[C@H](Cc3c[nH]c4ccccc34)NC(=O)[C@@H](CC(=O)O)NC(=O)[C@@H]3CCCN3C(=O)[C@H](C(c3ccccc3)c3ccccc3)NC1=O)C(=O)CCSCCC(=O)N1C[C@H](O)C[C@H]1C(=O)N[C@@H](CC(C)C)C(=O)N[C@@H](C(C)C)C(=O)N[C@@H](CC(N)=O)C(=O)N1CCC[C@H]1C(=O)N[C@@H](CC(C)C)C(=O)N2` [BCY13129, [MerPro]i[HyP]LVNPLCiiL[3,3-DPA]P[dD]WTCiii[dK]] ([Mpa][Hyp]LVNPLCL[Dip]P[dD]WTC[dK]-NH2; linker 1-8-15 via TATA; C-terminus assumed) the value was 1.88 nM.
The same measure for `CC(C)C[C@@H]1NC(=O)[C@@H]2CSCCC(=O)N3CN(CN(C3)C(=O)CCSC[C@H](NC(=O)[C@H](CC(=O)O)NC(=O)[C@H](CCCCNC(=N)N)NC(=O)[C@H](C)N)C(=O)N3C[C@H](O)C[C@H]3C(=O)N[C@@H](CCCC(=O)O)C(=O)N[C@@H](C(C)C)C(=O)N[C@@H](CC(N)=O)C(=O)N3CCC[C@H]3C(=O)N[C@@H](CC(C)C)C(=O)N2)C(=O)CCSC[C@@H](C(N)=O)NC(=O)[C@H](CCCCNC(=N)N)NC(=O)[C@H](Cc2c[nH]c3ccccc23)NC(=O)[C@@H](CC(=O)O)NC(=O)[C@@H]2CCCN2C(=O)[C@H](Cc2c[nH]cn2)NC1=O` [BCY13130, A-[HArg]-D-Ci[HyP][hGlu]VNPLCiiLHP[dD]W[HArg]Ciii] (H-A[hArg]DC[Hyp][Aad]VNPLCLHP[dD]W[hArg]C-NH2; linker 4-11-18 via TATA; N-terminus and C-terminus assumed): 7.8 nM; for `CC(C)C[C@@H]1NC(=O)[C@@H]2C[C@@H](O)CN2C(=O)[C@@H](NC(=O)[C@H](CC(=O)O)NC(=O)[C@H](CCCCNC(=N)N)NC(=O)[C@H](C)N)CSCCC(=O)N2CN3CN(C2)C(=O)CCSC[C@H](NC(=O)[C@H](CC(C)C)NC(=O)[C@@H]2CCCN2C(=O)[C@H](CC(N)=O)NC(=O)[C@H](C(C)C)NC1=O)C(=O)N[C@@H](CCCC(=O)O)C(=O)N[C@@H](Cc1c[nH]cn1)C(=O)N1CCC[C@H]1C(=O)N[C@H](CC(=O)O)C(=O)N[C@@H](Cc1c[nH]c2ccccc12)C(=O)N[C@@H](CCCCNC(=N)N)C(=O)N[C@H](C(N)=O)CSCCC3=O` [BCY13131, A-[HArg]-D-Ci[HyP]LVNPLCii[hGlu]HP[dD]W[HArg]Ciii] (H-A[hArg]DC[Hyp]LVNPLC[Aad]HP[dD]W[hArg]C-NH2; linker 4-11-18 via TATA; N-terminus and C-terminus assumed): 27.1 nM.
Turning to `CC(C)C[C@@H]1NC(=O)[C@@H]2CSCCC(=O)N3CN(CN(C3)C(=O)CCSC[C@H](NC(=O)[C@H](CC(=O)O)NC(=O)[C@H](CCCCNC(=N)N)NC(=O)[C@H](C)N)C(=O)N3C[C@H](O)C[C@H]3C(=O)N[C@@H](CC(C)C)C(=O)N[C@@H](C(C)C)C(=O)N[C@@H](CC(N)=O)C(=O)N3CCC[C@H]3C(=O)N[C@@H](CC(C)C)C(=O)N2)C(=O)CCSC[C@@H](C(N)=O)NC(=O)[C@H](CCCCNC(=N)N)NC(=O)[C@H](Cc2c[nH]c3ccccc23)NC(=O)[C@@H](CC(=O)O)NC(=O)[C@@H]2CCCN2C(=O)[C@H](CCCC(=O)O)NC1=O` [BCY13132, A-[HArg]-D-Ci[HyP]LVNPLCiiL[hGlu]P[dD]W[HArg]Ciii] (H-A[hArg]DC[Hyp]LVNPLCL[Aad]P[dD]W[hArg]C-NH2; linker 4-11-18 via TATA; N-terminus and C-terminus assumed), the inhibition constant Ki came to 7.08 nM. This Ki is about 3.8-fold lower than that of the compound before.
The same measure for `CC(C)C[C@@H]1NC(=O)[C@@H]2CSCCC(=O)N3CN(CN(C3)C(=O)CCSC[C@H](NC(=O)[C@H](CC(=O)O)NC(=O)[C@H](CCCCNC(=N)N)NC(=O)[C@H](C)N)C(=O)N3C[C@H](O)C[C@H]3C(=O)N[C@@H](CC(C)C)C(=O)N[C@@H](C(C)C)C(=O)N[C@@H](CC(N)=O)C(=O)N3CCC[C@H]3C(=O)N[C@@H](CC(C)C)C(=O)N2)C(=O)CCSCCNC(=O)[C@H](CCCCNC(=N)N)NC(=O)[C@H](Cc2c[nH]c3ccccc23)NC(=O)[C@@H](CC(=O)O)NC(=O)[C@@H]2CCCN2C(=O)[C@H](Cc2c[nH]cn2)NC1=O` [BCY13133, A[HArg]DCi[HyP]LVNPLCiiLHP[dD]W[HArg][Cysam]iii] (H-A[hArg]DC[Hyp]LVNPLCLHP[dD]W[hArg]; linker 4-11-C via X5; N-terminus assumed): 3.24 nM; for `CCCC[C@H]1NC(=O)[C@@H]2CCCN2C(=O)[C@H](Cc2c[nH]cn2)NC(=O)[C@H](CC(C)C)NC(=O)[C@@H]2CSCCC(=O)N3CN(CN(C3)C(=O)CCSC[C@H](NC(=O)[C@H](CC(=O)O)NC(=O)[C@H](CCCCNC(=N)N)NC(=O)[C@H](C)N)C(=O)N3C[C@H](O)C[C@H]3C(=O)N[C@@H](CC(C)C)C(=O)N[C@@H](C(C)C)C(=O)N[C@@H](CC(N)=O)C(=O)N3CCC[C@H]3C(=O)N[C@@H](CC(C)C)C(=O)N2)C(=O)CCSC[C@@H](C(N)=O)NC(=O)[C@H](CCCCNC(=N)N)NC(=O)[C@H](Cc2c[nH]c3ccccc23)NC1=O` [BCY13134, A-[HArg]-D-Ci[HyP]LVNPLCiiLHP[dNle]W[HArg]Ciii] (H-A[hArg]DC[Hyp]LVNPLCLHP[dNle]W[hArg]C-NH2; linker 4-11-18 via TATA; N-terminus and C-terminus assumed): 1.16 nM.
For `CCCC[C@@H]1NC(=O)[C@H](CC(C)C)NC(=O)[C@@H]2CSCCC(=O)N3CN(CN(C3)C(=O)CCSC[C@H](NC(=O)[C@H](CC(=O)O)NC(=O)[C@H](CCCCNC(=N)N)NC(=O)[C@H](C)N)C(=O)N3C[C@H](O)C[C@H]3C(=O)N[C@@H](CC(C)C)C(=O)N[C@@H](C(C)C)C(=O)N[C@@H](CC(N)=O)C(=O)N3CCC[C@H]3C(=O)N[C@@H](CC(C)C)C(=O)N2)C(=O)CCSC[C@@H](C(N)=O)NC(=O)[C@H](CCCCNC(=N)N)NC(=O)[C@H](Cc2c[nH]c3ccccc23)NC(=O)[C@@H](CC(=O)O)NC(=O)[C@@H]2CCCN2C1=O` [BCY13135, A-[HArg]-D-Ci[HyP]LVNPLCiiL[Nle]P[dD]W[HArg]Ciii] (H-A[hArg]DC[Hyp]LVNPLCL[Nle]P[dD]W[hArg]C-NH2; linker 4-11-18 via TATA; N-terminus and C-terminus assumed) the value was 0.894 nM.
For `CC(C)C[C@@H]1NC(=O)[C@@H]2CSCCC(=O)N3CN(CN(C3)C(=O)CCSC[C@H](NC(=O)[C@H](CC(=O)O)NC(=O)[C@H](CCCCNC(=N)N)NC(=O)[C@H](C)N)C(=O)N3C[C@H](O)C[C@H]3C(=O)N[C@@H](CC(C)C)C(=O)N[C@@H](C(C)C)C(=O)N[C@@H](CC(N)=O)C(=O)N3CCC[C@H]3C(=O)N[C@@H](CC(C)C)C(=O)N2)C(=O)CCSC[C@@H](C(N)=O)NC(=O)[C@H](CCCCNC(=N)N)NC(=O)[C@H](Cc2c[nH]c3ccccc23)NC(=O)[C@@H](CC(=O)O)NC(=O)[C@@H]2CCCN2C(=O)[C@H](Cc2cscn2)NC1=O` [BCY13919, A[HArg]DCi[HyP]LVNPLCiiL[4ThiAz]P[dD]W[HArg]Ciii] (H-A[hArg]DC[Hyp]LVNPLCL[Ala(4-thiazolyl)]P[dD]W[hArg]C-NH2; linker 4-11-18 via TATA; N-terminus and C-terminus assumed) the value was 2.1 nM.
Turning to `CC(C)C[C@@H]1NC(=O)[C@@H]2CSCCC(=O)N3CN(CN(C3)C(=O)CCSC[C@H](NC(=O)[C@H](CC(=O)O)NC(=O)[C@H](CCCCNC(=N)N)NC(=O)[C@H](C)N)C(=O)N3C[C@H](O)C[C@H]3C(=O)N[C@@H](CC(C)C)C(=O)N[C@@H](C(C)C)C(=O)N[C@@H](CC(N)=O)C(=O)N3CCC[C@H]3C(=O)N[C@@H](CC(C)C)C(=O)N2)C(=O)CCSC[C@@H](C(N)=O)NC(=O)[C@H](CCCCNC(=N)N)NC(=O)[C@H](Cc2c[nH]c3ccccc23)NC(=O)[C@@H](CC(=O)O)NC(=O)[C@@H]2CCCN2C(=O)[C@H](Cc2ccccc2)NC1=O` [BCY13920, A[HArg]DCi[HyP]LVNPLCiiLFP[dD]W[HArg]Ciii] (H-A[hArg]DC[Hyp]LVNPLCLFP[dD]W[hArg]C-NH2; linker 4-11-18 via TATA; N-terminus and C-terminus assumed), the inhibition constant (Ki) stood at 0.641 nM.
